Test results as given in patent publication US20260014147A1, “STAT6 DEGRADERS” (Gilead Sciences, Inc., priority 2024, published 2026).

Each molecule was assayed against T1, STAT6 (endogenous, HiBiT-tagged) in HeLa LgBiT clone 4.14 cells (Homo sapiens, UniProt P42226) (assay: STAT6 Degrader Assay (HiBiT based, HeLa LgBiT clone 4.14 cells, luminescence, DC50)). Conditions: DC50 provided for test compounds with >80% Emax, geometric mean, read-out: STAT6 degradation DC50.
T1 construct: These cells express endogenous STAT6; host or cells: HeLa LgBiT clone 4.14
T1 sequence (P42226 1-847): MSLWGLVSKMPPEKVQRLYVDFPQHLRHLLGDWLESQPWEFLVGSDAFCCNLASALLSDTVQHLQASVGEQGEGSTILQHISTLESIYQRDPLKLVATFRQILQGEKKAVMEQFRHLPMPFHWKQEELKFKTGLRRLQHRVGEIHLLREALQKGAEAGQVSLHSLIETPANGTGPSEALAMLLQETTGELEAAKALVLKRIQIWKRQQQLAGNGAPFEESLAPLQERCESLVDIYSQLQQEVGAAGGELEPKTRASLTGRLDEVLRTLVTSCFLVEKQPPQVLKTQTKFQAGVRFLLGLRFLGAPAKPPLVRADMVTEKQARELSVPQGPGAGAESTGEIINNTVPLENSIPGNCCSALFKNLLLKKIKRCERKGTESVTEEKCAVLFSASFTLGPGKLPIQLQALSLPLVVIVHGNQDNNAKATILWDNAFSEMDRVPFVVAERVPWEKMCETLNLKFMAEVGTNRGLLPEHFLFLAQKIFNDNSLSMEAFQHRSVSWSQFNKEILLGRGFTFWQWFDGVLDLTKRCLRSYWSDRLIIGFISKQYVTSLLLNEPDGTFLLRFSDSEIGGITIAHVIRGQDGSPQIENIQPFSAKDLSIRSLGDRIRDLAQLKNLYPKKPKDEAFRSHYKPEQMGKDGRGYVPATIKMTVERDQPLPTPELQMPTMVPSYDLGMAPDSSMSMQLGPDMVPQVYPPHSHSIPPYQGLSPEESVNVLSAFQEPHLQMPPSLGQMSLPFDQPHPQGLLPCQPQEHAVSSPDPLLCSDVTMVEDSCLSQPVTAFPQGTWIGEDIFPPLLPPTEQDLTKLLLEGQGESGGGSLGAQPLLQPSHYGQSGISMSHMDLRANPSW
Type: cell-based
How it was run: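 Remaining STAT6 is read as NanoBiT luminescence after 0.5 h with Nano-Glo, in HeLa LgBiT clone 4.14 cells expressing endogenous HiBiT-tagged STAT6, following 4-24 h compound incubation at 37 °C. Full degradation is set by 50 µM terfenadine, which kills the cells; degradation plotted against log compound concentration.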

SMILES | DC50
C[C@@H](c1cc2c(-c3ccc4[nH]ncc4c3)ccnc2n1C)N1CCC(c2ccc(C(=O)N3CCC(CN4CCN(c5ncc(NC6CCC(=O)NC6=O)cc5F)CC4)CC3)cc2)CC1 (stereo partly drawn) [Example 2n8, 3-((6-(4-((1-(4-(1-((S)-1-(4-(1H-indazol-5-yl)-1-methyl-1H-pyrrolo[2,3-b]pyridin-2-yl)ethyl)-piperidin-4-yl)benzoyl)piperidin-4-yl)methyl)piperazin-1-yl)-5-fluoropyridin-3-yl)amino)piperidine-2,6-dione] | 6.5 nM
COCc1nc2cc(-c3ccnc4c3cc(CN3CCC(c5ccc(C(=O)N6CCn7nc(CN8CCC(c9ccc(NC%10CCC(=O)NC%10=O)cc9F)C(F)(F)C8)cc7C6)cc5)CC3)n4C)ccc2[nH]1 (stereo not shown) [Example 2q12, 3-((4-(3,3-difluoro-1-((5-(4-(1-((4-(2-(methoxymethyl)-1H-benzo[d]imidazol-5-yl)-1-methyl-1H-pyrrolo[2,3-b]pyridin-2-yl)methyl)piperidin-4-yl)benzoyl)-4,5,6,7-tetrahydropyrazolo[1,5-a]pyrazin-2-yl)methyl)piperidin-4-yl)-3-fluorophenyl)amino)piperidine-2,6-dione] | 12.9 nM
COC(C)c1nc2cc(-c3ccnc4c3cc([C@H](C)N3CCC(c5ccc(C(=O)N6CCC(CN7CCN(c8ccc(NC9CCC(=O)NC9=O)cc8F)CC7)CC6)cc5)CC3)n4C)ccc2[nH]1 (stereo in doubt) [Example 2c21, 3-((3-fluoro-4-(4-((1-(4-(1-((S)-1-(4-(2-((R)-1-methoxyethyl)-1H-benzo[d]imidazol-5-yl)-1-methyl-1H-pyrrolo[2,3-b]pyridin-2-yl)ethyl)piperidin-4-yl)benzoyl)piperidin-4-yl)methyl)piperazin-1-yl)phenyl)amino)piperidine-2,6-dione] | 4.4 nM
COCc1nc2cc(-c3ccnc4c3cc(CN3CCC(c5ccc(C(=O)N6CCC(CN7CCC(N8CCC(c9ccc(NC%10CCC(=O)NC%10=O)cc9F)CC8)C(F)(F)C7)CC6)cc5)CC3)n4C)ccc2[nH]1 (stereo not shown) [Example 2h3, 3-((4-(3′, 3′-difluoro-1′-((1-(4-(1-((4-(2-(methoxymethyl)-1H-benzo[d]imidazol-5-yl)-1-methyl-1H-pyrrolo[2,3-b]pyridin-2-yl)methyl)piperidin-4-yl)benzoyl)piperidin-4-yl)methyl)-[1,4′-bipiperidin]-4-yl)-3-fluorophenyl)amino)piperidine-2,6-dione] | 54.8 nM
CNc1ccc(-c2ccnc3c2cc([C@H](C)N2CCC(c4ccc(C(=O)N5CCn6nc(CN7CCC(c8ccc(N[C@@H]9CCC(=O)NC9=O)cc8F)CC7)cc6C5)cc4)CC2)n3C)cn1 (single isomer, unassigned) [Example 2c43] | 1.6 nM

Same assay, conditions: Emax provided for test compounds with <80% Emax (and 2c15), geometric mean, read-out: STAT6 degradation Emax

SMILES | Emax
Cc1cc(C(=O)N2CCC(CN3CCN(c4ccc(NC5CCC(=O)NC5=O)cc4F)CC3)CC2)ccc1C1=CCN(Cc2cc3c(-c4ccc(N)nc4)ccnc3n2C)CC1 (stereo not shown) [Example 2c9, 3-((4-(4-((1-(4-(1-((4-(6-aminopyridin-3-yl)-1-methyl-1H-pyrrolo[2,3-b]pyridin-2-yl)methyl)-1,2,3,6-tetrahydropyridin-4-yl)-3-methylbenzoyl)piperidin-4-yl)methyl)piperazin-1-yl)-3-fluorophenyl)-amino)piperidine-2,6-dione] | 50 to 60%
CN(C(=O)c1ccc(C2CCN(Cc3cc4c(-c5ccc6[nH]ncc6c5)ccnc4n3C)CC2)cc1)c1ccc(CC2CCN(c3ccc(NC4CCC(=O)NC4=O)cc3)CC2)cc1 (stereo not shown) [Example 2o2, 4-(1-((4-(1H-indazol-5-yl)-1-methyl-1H-pyrrolo[2,3-b]pyridin-2-yl)methyl)-piperidin-4-yl)-N-(4-((1-(4-((2,6-dioxopiperidin-3-yl)amino)phenyl)piperidin-4-yl)methyl)-phenyl)-N-methylbenzamide] | 60 to 70%
COCc1nc2cc(-c3ccnc4c3cc(CN3CCC(c5ccc(C(=O)N6CCC(CN7CCN(c8ccc(NC9CCC(=O)NC9=O)cc8F)C[C@@H]7C)CC6)cc5)CC3)n4C)ccc2[nH]1 (stereo partly drawn) [Example 2f4, 3-((3-fluoro-4-((S)-4-((1-(4-(1-((4-(2-(methoxymethyl)-1H-benzo[d]imidazol-5-yl)-1-methyl-1H-pyrrolo[2,3-b]pyridin-2-yl)methyl)piperidin-4-yl)benzoyl)piperidin-4-yl)methyl)-3-methylpiperazin-1-yl)phenyl)-amino)piperidine-2,6-dione] | 50 to 60%
C[C@@H](c1cc2c(-c3ccc(N)nc3)ccnc2n1C)N1CCC(c2ccc(C(=O)N3CCC(CN4CCN(c5ccc(NC6CCC(=O)NC6=O)cc5C(F)(F)F)CC4)CC3)cc2)CC1 (stereo partly drawn) [Example 2i7, 3-((4-(4-((1-(4-(1-((S)-1-(4-(6-aminopyridin-3-yl)-1-methyl-1H-pyrrolo[2,3-b]pyridin-2-yl)-ethyl)-piperidin-4-yl)benzoyl)piperidin-4-yl)methyl)piperazin-1-yl)-3-(trifluoromethyl)phenyl)amino)-piperidine-2,6-dione] | 40 to 50%
Cn1c(CN2CCC(c3ccc(C(=O)N4CCC(CN5CCN(c6ccc(NC7CCC(=O)NC7=O)cc6F)CC5)CC4)cc3)CC2)cc2c(-c3ccc(N)nc3)ccnc21 (stereo not shown) [Example 2c2, 3-((4-(4-((1-(4-(1-((4-(6-aminopyridin-3-yl)-1-methyl-1H-pyrrolo[2,3-b]pyridin-2-yl)methyl)-piperidin-4-yl)benzoyl)piperidin-4-yl)methyl)piperazin-1-yl)-3-fluorophenyl)amino)piperidine-2,6-dione] | 50 to 60%
Cn1c(CN2CCC(c3ccc(C(=O)N4CCC(CN5CCC(n6ncc7c(NC8CCC(=O)NC8=O)cccc76)CC5)CC4)cc3)CC2)cc2c(-c3ccc4[nH]ncc4c3)ccnc21 (stereo not shown) [Example 2g1, 3-((1-(1-((1-(4-(1-((4-(1H-indazol-5-yl)-1-methyl-1H-pyrrolo[2,3-b]pyridin-2-yl)methyl)-piperidin-4-yl)benzoyl)piperidin-4-yl)methyl)piperidin-4-yl)-1H-indazol-4-yl)amino)piperidine-2,6-dione] | < 20%
Cn1c(CN2CCC(c3ccc(C(=O)N4CCC(CN5CCN(c6c(F)cc(NC7CCC(=O)NC7=O)cc6F)CC5)CC4)cc3)CC2)cc2c(-c3ccc4[nH]ncc4c3)ccnc21 (stereo not shown) [Example 2c34, 3-((4-(4-((1-(4-(1-((4-(1H-indazol-5-yl)-1-methyl-1H-pyrrolo[2,3-b]pyridin-2-yl)methyl)-piperidin-4-yl)benzoyl)piperidin-4-yl)methyl)piperazin-1-yl)-3,5-difluorophenyl)amino)piperidine-2,6-dione] | 70 to 80%
Cn1c(CN2CCC(c3ccc(C(=O)N4CCC(CN5CCN(C(=O)c6ccc(NC7CCC(=O)NC7=O)cc6F)CC5)CC4)cc3)CC2)cc2c(-c3ccc(N)nc3)ccnc21 (stereo not shown) [Example 2e2, 3-((4-(4-((1-(4-(1-((4-(6-aminopyridin-3-yl)-1-methyl-1H-pyrrolo[2,3-b]pyridin-2-yl)methyl)-piperidin-4-yl)benzoyl)piperidin-4-yl)methyl)piperazine-1-carbonyl)-3-fluorophenyl)amino)piperidine-2,6-dione] | < 20%
Cn1c(CN2CCC(c3ccc(C(=O)N4CCC(OCC#Cc5cccc(NC6CCC(=O)NC6=O)c5)CC4)cc3)CC2)cc2c(-c3ccc4[nH]ncc4c3)ccnc21 (stereo not shown) [Example 2t5, 3-((3-(3-((1-(4-(1-((4-(1H-indazol-5-yl)-1-methyl-1H-pyrrolo[2,3-b]pyridin-2-yl)methyl)-piperidin-4-yl)benzoyl)piperidin-4-yl)oxy)prop-1-yn-1-yl)phenyl)amino)-piperidine-2,6-dione] | 30 to 40%
C[C@H]1CN(c2ccc(NC3CCC(=O)NC3=O)cc2F)CCN1CC1CCN(C(=O)c2ccc(C3CCN(Cc4cc5c(-c6ccc7[nH]ncc7c6)ccnc5n4C)CC3)cc2)CC1 (stereo partly drawn) [Example 2f5, 3-((4-((S)-4-((1-(4-(1-((4-(1H-indazol-5-yl)-1-methyl-1H-pyrrolo[2,3-b]pyridin-2-yl)methyl)piperidin-4-yl)benzoyl)piperidin-4-yl)methyl)-3-methylpiperazin-1-yl)-3-fluorophenyl)amino)piperidine-2,6-dione] | 50 to 60%
Cn1c(CN2CCC(c3ccc(C(=O)N4CCC(CN5CCN(c6nccc(NC7CCC(=O)NC7=O)n6)CC5)CC4)cc3)CC2)cc2c(-c3ccc4[nH]ncc4c3)ccnc21 (stereo not shown) [Example 2k2, 3-((2-(4-((1-(4-(1-((4-(1H-indazol-5-yl)-1-methyl-1H-pyrrolo[2,3-b]pyridin-2-yl)methyl)-piperidin-4-yl)benzoyl)piperidin-4-yl)methyl)piperazin-1-yl)pyrimidin-4-yl)amino)piperidine-2,6-dione] | 30 to 40%
